# Values of other authors as cited in article PMC7395068, “The evolution of strategies to minimise the risk of human drug-induced liver injury (DILI) in drug discovery and development” (Archives of Toxicology, 2020).
# Like-named read-outs stand apart in the source and are kept apart here.
# Experiments:
# [1] = test system: HepG2 cells, primary human hepatocytes; conditions: In vitro Assay; ref Garside 2014; cited from earlier work
# HepG2 cells [2] = conditions: In vitro Assay; ref Persson 2013; cited from earlier work
# HepG2 cells [3] = conditions: cited from earlier work
# PHH spheroids = conditions: In vitro Assay; ref Vorrink 2018; cited from earlier work
# human hepatocytes = conditions: In vitro Assay; ref Xu 2008; cited from earlier work
# [4] = cited from earlier work
# [5] = test system: THLE or HepG2 cells, isolated mitochondria, BSEP; conditions: cited from earlier work
# rBsep = conditions: In vitro Assay; ref Dawson 2012; cited from earlier work
# [6] = cited from earlier work; remark: listed apart in the source
# [7] = test system: THLE-Null and THLE-3A4 cells; conditions: In vitro Assay; ref Gustafsson 2014; cited from earlier work
# [8] = test system: primary human hepatocytes, NIH3T3 fibroblasts, BSEP, CYP3A4; conditions: cited from earlier work
# [9] = test system: isolated mouse liver mitochondria; conditions: In vitro Assay; ref Porceddu 2012; cited from earlier work
# [10] = In vitro Assay, ref O'Brien 2006
# [11] = In vitro Assay, ref Schadt 2015
structure (smiles),measurement,setting,value
c1ccc(CN(CC2=NCCN2)c2ccccc2)cc1 [antazoline],Cluster 1-6 +VE Assay,[1],-VE
CN(C)C(=O)Oc1cc(OC(=O)N(C)C)cc(C(O)CNC(C)(C)C)c1 (stereo not drawn) [bambuterol],Cluser analysis,HepG2 cells [2],-VE
same,Structural based (HCI),HepG2 cells [2],-VE
same,Structural based (HCI),HepG2 cells [3]; [10],+VE
same,hLiMTs ATP <20 x Cmax,PHH spheroids,-VE
same,Structural based (HCI),human hepatocytes,-VE
same,In vivo DILI,[4]; ref O'Brien 2006,-VE
same,In vivo DILI,[4]; ref Persson 2013,-VE
same,In vivo DILI,[4]; ref Vorrink 2018,-VE
same,In vivo DILI,[4]; ref Xu 2008,-VE
OC(CCN1CCCCC1)(c1ccccc1)C1CC2C=CC1C2 (stereo not drawn) [biperiden],Cluster 1-6 +VE Assay,[1],-VE
CCCCN(CCCC)CCCOC(=O)c1ccc(N)cc1 [butacaine],Cluster 1-6 +VE Assay,[1],+VE
same,In vivo DILI,[4]; ref Garside 2014,-VE
COc1ccc(C(Cl)=C(c2ccc(OC)cc2)c2ccc(OC)cc2)cc1 [chlorotrianisene],Cluster 1-6 +VE Assay,[1],-VE
same,In vivo DILI,[4]; ref Garside 2014,-VE
O=C(O)c1cc(-c2ccccc2)nc2ccccc12 [cinchophen],Partition Hybrid HRM Score,[5],+VE
same,Inhibition of rBsep cutoff<1& cmax u>.2,rBsep,-VE
same,Inhibition of rBsep cutoff<3,rBsep,+VE
same,"DILI +VE (5-8), DILI -VE (-4)",[6]; in vivo,+VE
same,DILI severity category,[6]; in vivo,vMost-DILI-Concern
same,In vivo DILI,[4]; in vivo,+VE
same,THLE-Null,[7],-VE
CC(C)(Oc1ccc(C2CC2(Cl)Cl)cc1)C(=O)O (stereo not drawn) [ciprofibrate],Structural based (HCI),HepG2 cells [3]; [10],+VE
same,Inhibition of rBsep cutoff<1& cmax u>.2,rBsep,-VE
same,Inhibition of rBsep cutoff<3,rBsep,+VE
same,Cellular toxicity (3T3 cells),[8]; [11],-VE
same,Combined Assay,[8]; [11],-VE
same,GSH adduct HML,[8]; [11],-VE
same,Hepatocyte cellular toxicity,[8]; [11],-VE
same,MitoTox 3T3,[8]; [11],-VE
same,TDI CYP3A4,[8]; [11],-VE
same,hBSEP inhibition,[8]; [11],-VE
same,Structural based (HCI),human hepatocytes,+VE
same,In vivo DILI,[4]; ref Dawson 2012,+VE
same,In vivo DILI,[4]; ref Gustafsson 2014,+VE
same,In vivo DILI,[4]; ref O'Brien 2006,+VE
same,In vivo DILI,[4]; ref Schadt 2015,-VE
same,In vivo DILI,[4]; ref Xu 2008,+VE
same,THLE-Null,[7],-VE
same,THLE-Null/3A4,[7],-VE
O=c1ccc2ccccc2o1 [coumarin],in vitro data EC2<=1x Cmax,[9],+VE
same,in vitro data EC20<=2uM,[9],+VE
same,hLiMTs ATP <20 x Cmax,PHH spheroids,+VE (IC20 < 20 × Cmax.tot cut-off)
same,In vivo DILI,[4]; […],+VE
same,In vivo DILI,[4]; ref Porceddu 2012,+VE
same,In vivo DILI,[4]; ref Vorrink 2018,+VE
CCCCC[C@H](O)/C=C/[C@H]1[C@H](O)CC(=O)[C@@H]1C/C=C\CCCC(=O)O [dinoprostone],Cluster 1-6 +VE Assay,[1],-VE
same,In vivo DILI,[4]; ref Garside 2014,-VE
CC(C)OC(=O)C(C)(C)Oc1ccc(C(=O)c2ccc(Cl)cc2)cc1 [fenofibrate],Cluser analysis,HepG2 cells [2],-VE
same,Partition Hybrid HRM Score,"[5]; In vitro Assay, ref Aleo 2019",+VE
same,Ro2 Hybrid HRM Score,"[5]; In vitro Assay, ref Aleo 2019",+VE
same,hLiMTs ATP <20 x Cmax,PHH spheroids,+VE (IC20 < 20 × Cmax.tot cut-off)
same,Structural based (HCI),human hepatocytes,-VE
"NS(=O)(=O)c1cc(C(=O)O)c(NCc2ccco2)cc1Cl [furosemide, reference compound]",Cluser analysis,HepG2 cells [2],-VE
same,Structural based (HCI),HepG2 cells [2],-VE
same,Structural based (HCI),HepG2 cells [3]; [10],-VE
same,THLE-Null,[7],-VE
COC1=CC(=O)C[C@@H](C)[C@]12Oc1c(Cl)c(OC)cc(OC)c1C2=O [griseofulvin],Partition Hybrid HRM Score,"[5]; In vitro Assay, ref Aleo 2019",+VE
same,Ro2 Hybrid HRM Score,"[5]; In vitro Assay, ref Aleo 2019",+VE
same,hLiMTs ATP <20 x Cmax,PHH spheroids,-VE
same,Structural based (HCI),human hepatocytes,-VE
Cc1ccc(Nc2c(F)cccc2Cl)c(CC(=O)O)c1 [lumiracoxib],in vitro data EC2<=1x Cmax,[9],+VE
same,Cellular toxicity (3T3 cells),[8]; [11],-VE
same,Combined Assay,[8]; [11],+VE
same,GSH adduct HML,[8]; [11],+VE
same,Hepatocyte cellular toxicity,[8]; [11],-VE
same,MitoTox 3T3,[8]; [11],-VE
same,TDI CYP3A4,[8]; [11],-VE
same,hBSEP inhibition,[8]; [11],-VE
same,THLE-Null,[7],+VE
Cc1cc2c(s1)Nc1ccccc1N=C2N1CCN(C)CC1 [olanzapine],In vivo DILI,[4]; […],-VE
same,In vivo DILI,[4]; ref Gustafsson 2014,+VE
same,In vivo DILI,[4]; ref Schadt 2015,-VE
same,In vivo DILI,[4]; ref Williams 2019,+VE
same,THLE-Null,[7],-VE
Nc1ccc(/N=N/c2ccccc2)c(N)n1 [phenazopyridine],Partition Hybrid HRM Score,"[5]; In vitro Assay, ref Aleo 2019",+VE
same,Ro2 Hybrid HRM Score,"[5]; In vitro Assay, ref Aleo 2019",-VE
same,hLiMTs ATP <20 x Cmax,PHH spheroids,-VE
same,Structural based (HCI),human hepatocytes,-VE
same,In vivo DILI,[4]; ref Aleo 2019,-VE
same,In vivo DILI,[4]; ref Vorrink 2018,+VE
same,In vivo DILI,[4]; ref Xu 2008,+VE
NNCCc1ccccc1 [phenelzine],hLiMTs ATP <20 x Cmax,PHH spheroids,-VE
same,Structural based (HCI),human hepatocytes,-VE
same,"DILI +VE (5-8), DILI -VE (-4)",[6]; ref Chen 2016,+VE
same,DILI severity category,[6]; ref Chen 2016,vLess-DILI-Concern
same,In vivo DILI,[4]; […],+VE
same,In vivo DILI,[4]; ref Vorrink 2018,-VE
same,In vivo DILI,[4]; ref Xu 2008,-VE
CC[C@@H]1C(=O)OC[C@@H]1Cc1cncn1C [pilocarpine],hLiMTs ATP <20 x Cmax,PHH spheroids,-VE
same,Structural based (HCI),human hepatocytes,-VE
same,"DILI +VE (5-8), DILI -VE (-4)",[6]; ref Chen 2016,-VE
same,DILI severity category,[6]; ref Chen 2016,Ambiguous DILI-concern
same,In vivo DILI,[4]; ref Vorrink 2018,-VE
same,In vivo DILI,[4]; ref Xu 2008,-VE
COc1cc(NC(C)CCCN)c2ncccc2c1 (stereo not drawn) [primaquine],Partition Hybrid HRM Score,"[5]; In vitro Assay, ref Aleo 2019",-VE
same,Ro2 Hybrid HRM Score,"[5]; In vitro Assay, ref Aleo 2019",-VE
same,Structural based (HCI),HepG2 cells [3]; [10],+VE
same,hBSEP inhibition,[8],-VE
same,hLiMTs ATP <20 x Cmax,PHH spheroids,-VE
same,Structural based (HCI),human hepatocytes,-VE
same,"DILI +VE (5-8), DILI -VE (-4)",[6]; ref Chen 2016,-VE
same,DILI severity category,[6]; ref Chen 2016,vNo-DILI-Concern
same,In vivo DILI,[4]; ref Aleo 2019,-VE
same,In vivo DILI,[4]; ref O'Brien 2006,-VE
same,In vivo DILI,[4]; ref Schadt 2015,-VE
same,In vivo DILI,[4]; ref Vorrink 2018,-VE
same,In vivo DILI,[4]; ref Xu 2008,-VE
CCOC(=O)[C@H](CCc1ccccc1)N[C@@H](C)C(=O)N1Cc2ccccc2C[C@H]1C(=O)O [quinapril],hLiMTs ATP <20 x Cmax,PHH spheroids,-VE
same,Structural based (HCI),human hepatocytes,-VE
same,"DILI +VE (5-8), DILI -VE (-4)",[6]; ref Chen 2016,+VE
same,DILI severity category,[6]; ref Chen 2016,vLess-DILI-Concern
same,In vivo DILI,[4]; ref Vorrink 2018,+VE
same,In vivo DILI,[4]; ref Xu 2008,+VE
C=C[C@H]1C[N@@]2CC[C@H]1C[C@@H]2[C@@H](O)c1ccnc2ccc(OC)cc12 [quinidine],Structural based (HCI),HepG2 cells [3],+VE
same,Cellular toxicity (3T3 cells),[8],+VE
same,GSH adduct HML,[8],-VE
same,TDI CYP3A4,[8],-VE
same,hBSEP inhibition,[8],-VE
same,hLiMTs ATP <20 x Cmax,PHH spheroids,+VE (IC20 < 20 × Cmax.tot cut-off)
same,"DILI +VE (5-8), DILI -VE (-4)",[6]; in vivo,+VE
same,DILI severity category,[6]; in vivo,vLess-DILI-Concern
O=C(c1ccc(OCCN2CCCCC2)cc1)c1c(-c2ccc(O)cc2)sc2cc(O)ccc12 [raloxifene],hLiMTs ATP <20 x Cmax,PHH spheroids,-VE
same,Structural based (HCI),human hepatocytes,-VE
same,"DILI +VE (5-8), DILI -VE (-4)",[6]; ref Chen 2016,-VE
same,DILI severity category,[6]; ref Chen 2016,vNo-DILI-Concern
same,In vivo DILI,[4]; […],-VE
same,In vivo DILI,[4]; ref Vorrink 2018,-VE
same,In vivo DILI,[4]; ref Xu 2008,-VE
Cc1nc2n(c(=O)c1CCN1CCC(c3noc4cc(F)ccc34)CC1)CCCC2 [risperidone],Cluser analysis,HepG2 cells [2],+VE
same,Structural based (HCI),HepG2 cells [2],-VE
same,hLiMTs ATP <20 x Cmax,PHH spheroids,-VE
same,Structural based (HCI),human hepatocytes,-VE
same,In vivo DILI,[4]; ref Persson 2013,+VE
same,In vivo DILI,[4]; ref Vorrink 2018,+VE
same,In vivo DILI,[4]; ref Xu 2008,+VE
O=C(O)c1ccccc1O [salicylic acid],in vitro data EC2<=1x Cmax,[9],+VE
same,Inhibition of rBsep cutoff<1& cmax u>.2,rBsep,-VE
same,Inhibition of rBsep cutoff<3,rBsep,-VE
same,THLE-Null,[7],-VE
Cc1nnc(NS(=O)(=O)c2ccc(N)cc2)s1 [sulfamethizole],Cluster 1-6 +VE Assay,[1],-VE
CCN1CCCC1CNC(=O)c1cc(S(N)(=O)=O)ccc1OC (stereo not drawn) [sulpiride],Inhibition of rBsep cutoff<1& cmax u>.2,rBsep,-VE
same,Inhibition of rBsep cutoff<3,rBsep,-VE
same,In vivo DILI,[4]; in vivo,+VE
same,THLE-Null,[7],-VE
Cn1nnc2c(C(N)=O)ncn2c1=O [temozolomide],Structural based (HCI),HepG2 cells [3]; [10],+VE (lowest HCI endpoint IC50 (or in the absence of dose–response < 100 µM) < 30 × total human plasma exposure levels (Cmax.tot))
same,hLiMTs ATP <20 x Cmax,PHH spheroids,-VE
same,Structural based (HCI),human hepatocytes,-VE
same,"DILI +VE (5-8), DILI -VE (-4)",[6]; ref Chen 2016,+VE
same,DILI severity category,[6]; ref Chen 2016,vLess-DILI-Concern
same,In vivo DILI,[4]; ref O'Brien 2006,-VE
same,In vivo DILI,[4]; ref Vorrink 2018,-VE
same,In vivo DILI,[4]; ref Xu 2008,-VE
